{"source": "patent US7144893B2", "about": "“4-aryl quinols and analogs thereof as therapeutic agents” (Cancer Research Technology Limited, priority 2001, dated 2006)", "key": {"[1]": {"system": "MDA 468 (ER−) breast carcinoma", "assay": "Growth inhibitory assay (MTT, 72 hr)", "format": "cell-based", "details": "Homo sapiens, 72 hr exposure", "procedure": "(§1) Compounds were prepared as 10 mM top stocks, dissolved in DMSO, and stored at 4° C., protected from light, for a maximum period of 4 weeks. Human derived cell lines (HCT 116, HT29 colon carcinoma; MCF-7 (ER+), MDA 468 (ER−) breast carcinoma; A549 lung adenocarcinoma) were routinely cultivated at 37° C. in an atmosphere of 5% CO2 in RPMI 1640 medium supplemented with 2 mM L-glutamine and 10% fetal calf serum and subcultured twice weekly to maintain continuous logarithmic growth. Cells were seeded into 96-well microtiter plates at a density of 5×10^3 per well and allowed 24 hr to adhere before drugs were introduced (final concentration 0.1 nM–100 μM, n=8). Serial drug dilutions were prepared in medium immediately prior to each assay. At the time of drug addition and following 72 hr exposure, MTT was added to each well (final concentration 400 µg/mL). Incubation at 37° C. for 4 hr allowed reduction of MTT by mitochondrial dehydrogenase to an insoluble formazan product. Well contents were aspirated and formazan solubilized by addition of DMSO:glycine buffer (pH 10.5) (4:1). Absorbance was measured using an Anthos Labtec systems plate reader at 550 nm, and used as a measure of cell viability; thus cell growth or drug toxicity was determined."}, "[2]": {"system": "MCF-7 (ER+) breast carcinoma", "assay": "Growth inhibitory assay (MTT, 72 hr)", "format": "cell-based", "details": "Homo sapiens, MCF7, 72 hr exposure", "procedure": "as §1"}, "HCT 116 colon carcinoma": {"system": "HCT 116 colon carcinoma", "assay": "Growth inhibitory assay (MTT, 72 hr)", "format": "cell-based", "details": "Homo sapiens, 72 hr exposure", "procedure": "as §1"}, "HT29 colon carcinoma": {"system": "HT29 colon carcinoma", "assay": "Growth inhibitory assay (MTT, 72 hr)", "format": "cell-based", "details": "Homo sapiens, HT-29, 72 hr exposure", "procedure": "as §1"}, "A549 lung adenocarcinoma": {"system": "A549 lung adenocarcinoma", "assay": "Growth inhibitory assay (MTT, 72 hr)", "format": "cell-based", "details": "Homo sapiens, 72 hr exposure", "procedure": "as §1"}, "RXF 944L": {"system": "RXF 944L", "assay": "In vitro propidium iodide cytotoxicity assay", "format": "cell-based, human", "details": "mean ± S.D.", "procedure": "(§2) This assay was performed essentially according to the method described by Dengler et al., 1995. Human tumor cells (see Table 2) were plated in 96 well flat-bottomed microtiter plates (50 μL cell suspension, 1×10^5 or 5×10^4 cells/mL) and additional 50 μL of culture medium were added. After a 24 hr recovery, 50 μL of culture medium containing 50 μg/mL gentamycin was added into the 6 control wells or medium containing the test drug ([…]) was added to the wells. Each drug concentration was plated in triplicate. Following 3-6 days of incubation, depending on cell doubling time, a modified propidium iodide (PI) assay was performed. Culture medium was replaced by fresh medium and 50 μL of an aqueous propidium iodide solution (25 μg/mL) were added to each well. […] The fluorescence signal correlates with the numbers of dead cells. Fluorescence (FU1) was measured using a Millipore Cytofluor 2350 microplate reader (excitation 530 nm, emission 620 nm). Microplates were then kept at -18° C. for 24 hr, yielding a total cell kill. After thawing of the plates and a second fluorescence measurement (FU2), the amount of viable cells was calculated by subtraction of […]). Growth inhibition was expressed as treated/control ×100 (% T/C) (that is, growth inhibition at a given concentration is represented as a percentage of treated cell growth over control cell growth). Inhibiting concentrations (IC) were determined by plotting compound concentration versus cell viability. Mean IC50, IC70, and IC90 values were calculated for each individual cell line."}, "RXF 393NL": {"system": "RXF 393NL", "assay": "In vitro propidium iodide cytotoxicity assay", "format": "cell-based, human", "details": "mean ± S.D.", "procedure": "as §2"}, "RXF 631L": {"system": "RXF 631L", "assay": "In vitro propidium iodide cytotoxicity assay", "format": "cell-based, human", "details": "mean ± S.D.", "procedure": "as §2"}, "colon sub-panel": {"system": "colon sub-panel", "assay": "cells", "format": "cell-based", "details": "Homo sapiens, SW-620, read-out: mean LC50 in colon sub-panel", "procedure": "(§3) Compounds were tested for in vitro activity (48 h drug exposure) across 60 human cancer cell lines through the National Cancer Institute (NCI) Developmental Therapies Screening Program (Boyd et al., 1995)."}, "renal sub-panel": {"system": "renal sub-panel", "assay": "cells", "format": "cell-based", "details": "Homo sapiens, 60 cell, read-out: mean LC50 in renal sub-panel", "procedure": "as §3"}, "[3]": {"system": "60 human cancer cell lines", "assay": "cells", "format": "cell-based", "procedure": "as §3"}, "[4]": {"system": "Mycobacterium tuberculosis H37Rv (ATCC 27294)", "assay": "Microplate Alamar Blue Assay (MABA), TAACF primary screening", "format": "cell-based", "details": "lowest concentration effecting a reduction in fluorescence of 90% relative to controls", "text": "Compounds were submitted to the Tuberculosis Antimicrobial Acquisition and Coordinating Facility (TAACF) for testing as antimycobacterial drugs.\nCompounds were subjected to in vitro evaluation for antimycobacterial activity.\nSee, for example, Collins et al., 1997."}, "[5]": {"system": "ZR^75 clones expressing different levels of epidermal growth factor receptor (EGFR)", "assay": "Activity against ZR75 clones with different EGFR levels", "format": "cell-based"}, "[6]": {"system": "human renal tumor xenograft RXF 1220", "assay": "In vivo antitumor activity, renal tumor xenograft", "details": "15 mg/kg i.p."}}}
{"molecule": "O=C1C=CC(O)(c2nc3ccccc3s2)C=C1", "note": "[Q05, 4-(Benzothiazol-2-yl)-4-hydroxy-2,5-cyclohexadien-1-one]", "values": [{"measurement": "IC50", "setting": "[1]", "value": 790, "unit": "nM"}, {"measurement": "IC50", "setting": "[2]", "value": 350, "unit": "nM"}, {"measurement": "IC50", "setting": "HCT 116 colon carcinoma", "value": 40, "unit": "nM"}, {"measurement": "IC50", "setting": "HT29 colon carcinoma", "value": 380, "unit": "nM"}, {"measurement": "IC50", "setting": "A549 lung adenocarcinoma", "value": 2350, "unit": "nM"}, {"measurement": "IC50", "setting": "RXF 944L; Homo sapiens", "value": "0.265 ± 0.06", "unit": "µg/mL"}, {"measurement": "IC90", "setting": "RXF 944L; Homo sapiens", "value": "0.87 ± 0.09", "unit": "µg/mL"}, {"measurement": "Mean IC70", "setting": "RXF 944L", "value": "0.48 ± 0.08", "unit": "µg/mL"}, {"measurement": "IC50", "setting": "RXF 393NL; Homo sapiens", "value": "0.34 ± 0.03", "unit": "µg/mL"}, {"measurement": "IC90", "setting": "RXF 393NL; Homo sapiens", "value": "8.63 ± 5.4", "unit": "µg/mL"}, {"measurement": "Mean IC70", "setting": "RXF 393NL", "value": "0.67 ± 0.09", "unit": "µg/mL"}, {"measurement": "IC50", "setting": "RXF 631L; Homo sapiens", "value": 0.37, "unit": "µg/mL"}, {"measurement": "IC90", "setting": "RXF 631L; Homo sapiens", "value": 0.84, "unit": "µg/mL"}, {"measurement": "Mean IC70", "setting": "RXF 631L", "value": 0.56, "unit": "N.E. μg/mL"}, {"measurement": "LC50", "setting": "colon sub-panel", "value": 1760, "unit": "nM"}, {"measurement": "mean LC50", "setting": "renal sub-panel", "value": 1570, "unit": "nM"}, {"measurement": "CC50", "setting": "[3]; Homo sapiens, 60 cell, 48 h, read-out: mean LC50", "value": 3390, "unit": "nM"}, {"measurement": "GI50", "setting": "[3]; Homo sapiens, 60 cell, Table 5", "value": 290, "unit": "nM"}, {"measurement": "GI50", "setting": "[3]; Homo sapiens, mean over NCI 60 cell panel, 48 h drug exposure", "value": 230, "unit": "nM"}, {"measurement": "mean log10GI50", "setting": "[3]; NCI analysis", "value": "−6.63"}, {"measurement": "log10LC50", "setting": "[3]; NCI analysis, certain colon and renal cells lines", "value": "< −6.0"}, {"measurement": "MIC", "setting": "[4]", "value": 0.78, "unit": "µg/mL"}, {"measurement": "relative activity against ZR75 clones", "setting": "[5]", "value": "equi-active"}, {"measurement": "DT (tumor doubling time)", "setting": "[6]; days 1, 5, 8", "value": 5.3}, {"measurement": "T/C (optimal test/control)", "setting": "[6]; days 1, 5, 8", "value": 66}, {"measurement": "GD (growth delay)", "setting": "[6]; days 1, 5, 8, difference in days to double initial tumor volume", "value": 2.2}, {"measurement": "BWC (maximal body weight change)", "setting": "[6]; days 1, 5, 8, model induces cachexia", "value": "−20"}]}
